“Also recorded” adds a separate entry of the source.
Experiment: Peptide partition from solution to membrane followed by tryptophan intrinsic fluorescence titration
Type: physicochemical
Conditions: for ability to interact with / partition into membranes: tryptophan fluorescence and CD; for ΔG (free energy of membrane partition): ΔG=−RTln(KX)
Protocol: Small unilamellar vesicles (SUVs) were prepared at a lipid concentration of 10 mM from POPC and POPG at a molar ratio of 10:0 or 8:2 or from DOPC, DOPE, DOPG, Chol at molar ratio 10:0:0:0, 8:0:2:0, 7:3:0:0, 7:0:0:3, 6:3:0:1, and 4:3:2:1 in buffer A, as previously described. Briefly, SUVs were prepared by reverse-phase evaporation and passed through polycarbonate filters 0.8-, 0.4-, and 0.2-μm (Merck Millipore, Darmstadt, Germany). Vesicles were sonicated using a sonicator tip and their hydrodynamic diameters, dispersity, and charge were checked by dynamic light scattering (DLS) and electrophoretic mobility using a NanoZS instrument (Malvern Instruments, Orsay, France).
Fluorescence titrations were performed with a FP-8200 Jasco spectrofluorimeter, equipped with a Peltier-thermostated ETC-272T (25 °C). A bandwidth of 5 nm was used for both excitation and emission beams. Fluorescence experiments were carried out in a 109.004F-QS cuvette (Hellma, France) with constant stirring. Fluorescence emission was recorded between 300 and 400 nm at a scan rate of 200 nm/min, with an excitation wavelength of 280 nm. Fluorescence emission spectra were corrected for SUV light scattering. Maximum emission wavelength (λmax) and fluorescence intensity ratio at 330 nm over 370 nm (P454-derived peptides) or at 340 nm over 380 nm (CyaA-derived peptides) were used to report peptide-membrane interaction and to measure the partition coefficient KX.
The partition coefficient KX is defined as the ratio of protein concentrations in the lipid and in buffer phases. It is expressed as follows:
KX=PL/PW·[W]/[L] , providing PW/PL=[W]/KX[L] , where PW is the concentration of peptide in solution, PL the concentration of peptides partitioning into lipid membrane, [W] represents the concentration of water, and [L] the lipid concentration.
The fraction of peptide partitioned into the membrane phase, fPL, is equal to: fPL=PL/PT=PL/PL+PW=1/(PW/PL)+1=1/([W]/KX[L])+1
The partition coefficient is related to the apparent dissociation constant as follows: KX * KD = [W] with KD * PL = PW * [L]. The equation fPL is fitted to the experimental data using the KaleidaGraph software, providing KX. The free energy corresponding to the transfer of the peptide from the aqueous phase to the lipid phase is given by the equation ΔG=−RTln(KX) , where ΔG is the free energy in kcal/mol, R the gas constant (R = 1.98 × 10^−3 kcal/mol/K), and T the temperature in Kelvin.

[1] = SUVs DOPC/DOPE/DOPG/Chol 4:3:2:1, Trp fluorescence titration (exc. 280 nm, ratio 340/380 nm), 20 mM HEPES, 150 mM NaCl, pH 7.4, 25 °C
[2] = SUVs DOPC/DOPE/DOPG/Chol 4:3:2:1
[3] = SUVs DOPC/DOPE/DOPG/Chol 4:3:2:1, pH 7.4, 25 °C
[4] = SUVs DOPC/DOPG 8:2, Trp fluorescence titration (exc. 280 nm, ratio 330/370 nm), 20 mM HEPES, 150 mM NaCl, pH 7.4, 25 °C, S.D. within ±5%
[5] = SUVs DOPC/DOPG 8:2, pH 7.4, 25 °C, S.D. ±0.1 kcal/mol
[6] = SUVs DOPC, Trp fluorescence titration (exc. 280 nm, ratio 330/370 nm), 20 mM HEPES, 150 mM NaCl, pH 7.4, 25 °C, S.D. within ±5%
[7] = SUVs DOPC, pH 7.4, 25 °C, S.D. ±0.1 kcal/mol
[8] = SUVs POPC/POPG 8:2, Trp fluorescence titration (exc. 280 nm, ratio 330/370 nm), 20 mM HEPES, 150 mM NaCl, pH 7.4, 25 °C, S.D. within ±5%
[9] = SUVs POPC/POPG 8:2, pH 7.4, 25 °C, S.D. ±0.1 kcal/mol
[10] = SUVs POPC, Trp fluorescence titration (exc. 280 nm, ratio 330/370 nm), 20 mM HEPES, 150 mM NaCl, pH 7.4, 25 °C, S.D. within ±5%
[11] = SUVs POPC, pH 7.4, 25 °C, S.D. ±0.1 kcal/mol

Compound	partition coefficient KX [1]	ability to interact with / partition into membranes [2]	ΔG (free energy of membrane partition) [3] [kcal/mol]	partition coefficient KX [4]	ΔG (free energy of membrane partition) [5] [kcal/mol]	partition coefficient KX [6]	ΔG (free energy of membrane partition) [7] [kcal/mol]	partition coefficient KX [8]	ΔG (free energy of membrane partition) [9] [kcal/mol]	partition coefficient KX [10]	ΔG (free energy of membrane partition) [11] [kcal/mol]	other results
Ac-EASSAVAETVSGFFRGW-NH2 [Peptide P509]	80 000	able to interact with membranes	-6.7									
Ac-IPAAVLDGIKAVAKEKNW-NH2 [Peptide P19]		no detectable change of tryptophan fluorescence or CD signature; also recorded: do not										
Ac-TTEISKSALELAAITGNW-NH2 [Peptide P777]		no detectable change of tryptophan fluorescence or CD signature; also recorded: do not										
CC[C@H](C)[C@H](NC(=O)[C@H](CCCCN)NC(=O)[C@H](Cc1c[nH]c2ccccc12)NC(=O)[C@H](CC(C)C)NC(=O)[C@H](CC(C)C)NC(=O)[C@H](CC(=O)O)NC(=O)[C@@H](NC(=O)[C@H](CCCNC(=N)N)NC(=O)[C@H](CCC(=O)O)NC(=O)[C@H](CCCNC(=N)N)NC(=O)[C@H](CC(=O)O)NC(=O)[C@H](CC(C)C)NC(C)=O)[C@@H](C)CC)C(=O)N[C@@H](C)C(=O)N[C@@H](CCCNC(=N)N)C(=O)N[C@@H](C)C(=O)NCC(=O)N[C@@H](C)C(=O)N[C@@H](CCCNC(=N)N)C(=O)N[C@@H](CO)C(=O)N[C@@H](C)C(=O)N[C@H](C(=O)NCC(N)=O)C(C)C [Peptide P233]	60 000	able to interact with membranes	-6.5									
Ac-QEAASLSAAVFGLGEASSAVAETVSGFFRGW-NH2 [Peptide P495]	130 000	able to interact with membranes	-6.9									
Ac-ASAHWGQRALQGAQAVAAAQQLVHAIALMTQ-NH2 [P454 R2Q]				655 000	-7.9	260 000	-7.4	150 000	-7	90 000	-6.7	
Ac-IIEKLANDYARKIDELGW-NH2 [Peptide P717]	60 000	able to interact with membranes	-6.5									
Ac-ASAHWGQEALQGAQAVAAAQELVHAIALMTQ-NH2 [P454 R12E]				70 000	-6.6	85 000	-6.7	30 000	-6.1	7 000	-5.2	
Ac-ASAHWGQAALQGAQAVAAAQALVHAIALMTQ-NH2 [P454 R12A]				795 000	-8	610 000	-7.9	275 000	-7.4	195 000	-7.2	
Ac-ASAHWGQQALQGAQAVAAAQQLVHAIALMTQ-NH2 [P454 R12Q]				310 000	-7.5	195 000	-7.2	70 000	-6.6	35 000	-6.2	
Ac-ASAHWGQKALQGAQAVAAAQKLVHAIALMTQ-NH2 [P454 R12K]				750 000	-8	265 000	-7.4	215 000	-7.3	60 000	-6.5	
Ac-ASAHWGQQALQGAQAVAAAQRLVHAIALMTQ-NH2 [P454 R1Q]				670 000	-7.9	340 000	-7.5	190 000	-7.2	75 000	-6.6	
Ac-LVQQSHYADQLDKLAQESSAYGW-NH2 [Peptide P626]		no detectable change of tryptophan fluorescence or CD signature; also recorded: do not										
Ac-AYFEKNLQARHEQLANSDGLRKMLADLQAGWNASS-NH2 [Peptide P737]	20 000	able to interact with membranes	-5.8									
Ac-APEVIARADNDVNSSLAHGW-NH2 [Peptide P89]		no detectable change of tryptophan fluorescence or CD signature; also recorded: do not										
CC[C@H](C)[C@H](NC(=O)[C@H](C)NC(=O)[C@H](Cc1c[nH]cn1)NC(=O)[C@@H](NC(=O)[C@H](CC(C)C)NC(=O)[C@H](CCCNC(=N)N)NC(=O)[C@H](CCC(N)=O)NC(=O)[C@H](C)NC(=O)[C@H](C)NC(=O)[C@H](C)NC(=O)[C@@H](NC(=O)[C@H](C)NC(=O)[C@H](CCC(N)=O)NC(=O)[C@H](C)NC(=O)CNC(=O)[C@H](CCC(N)=O)NC(=O)[C@H](CC(C)C)NC(=O)[C@H](C)NC(=O)[C@H](CCCNC(=N)N)NC(=O)[C@H](CCC(N)=O)NC(=O)CNC(=O)[C@H](Cc1c[nH]c2ccccc12)NC(=O)[C@H](Cc1c[nH]cn1)NC(=O)[C@H](C)NC(=O)[C@H](CO)NC(=O)[C@H](C)NC(C)=O)C(C)C)C(C)C)C(=O)N[C@@H](C)C(=O)N[C@@H](CC(C)C)C(=O)N[C@@H](CCSC)C(=O)N[C@H](C(=O)N[C@@H](CCC(N)=O)C(N)=O)[C@@H](C)O [Peptide P454]	300 000	able to interact with membranes	-7.4	1 200 000	-8.3	505 000	-7.8	790 000	-8	150 000	-7	membrane partition on addition of both POPE and cholesterol to POPC (POPC with POPE and cholesterol, data not shown): totally abolishes the partition; partition coefficient KX (SUVs DOPC/Chol 7:3, Trp fluorescence titration, pH 7.4, 25 °C, S.D. within ±5%): 60 000; ΔG (free energy of membrane partition) (SUVs DOPC/Chol 7:3, pH 7.4, 25 °C): -6.5 kcal/mol; partition coefficient KX (SUVs DOPC/DOPE 7:3, Trp fluorescence titration, pH 7.4, 25 °C, S.D. within ±5%): 80 000; ΔG (free energy of membrane partition) (SUVs DOPC/DOPE 7:3, pH 7.4, 25 °C): -6.7 kcal/mol; partition coefficient KX (SUVs DOPC/DOPE/Chol 6:3:1, Trp fluorescence titration, pH 7.4, 25 °C, S.D. within ±5%): 40 000; ΔG (free energy of membrane partition) (SUVs DOPC/DOPE/Chol 6:3:1, pH 7.4, 25 °C): -6.3 kcal/mol; ΔΔG, net contribution of arginine residues to partition compared to the lysine residues of R12K (native P454 vs R12K, all membrane lipid compositions tested): ~0.5 ± 0.2 kcal/mol

Source: paper PMC5705984, “Membrane-Active Properties of an Amphitropic Peptide from the CyaA Toxin Translocation Region” (Toxins, 2017)
